ChEMBL document CHEMBL1135510, “Common and selective molecular determinants involved in metabotopic glutamate receptor agonist activity” (J Med Chem, 2002)

How the values were obtained:
[1] = target: T1, Metabotropic glutamate receptor 4 (Homo sapiens, UniProt Q14833); test: Binding affinity at Metabotropic glutamate receptor 4; design: species or system Rattus norvegicus
[2] = target: T2, Metabotropic glutamate receptor 2 (Homo sapiens, UniProt Q14416); test: Binding affinity at Metabotropic glutamate receptor 2; design: species or system Rattus norvegicus
Target sequence in this assay (Q14416 whole entry): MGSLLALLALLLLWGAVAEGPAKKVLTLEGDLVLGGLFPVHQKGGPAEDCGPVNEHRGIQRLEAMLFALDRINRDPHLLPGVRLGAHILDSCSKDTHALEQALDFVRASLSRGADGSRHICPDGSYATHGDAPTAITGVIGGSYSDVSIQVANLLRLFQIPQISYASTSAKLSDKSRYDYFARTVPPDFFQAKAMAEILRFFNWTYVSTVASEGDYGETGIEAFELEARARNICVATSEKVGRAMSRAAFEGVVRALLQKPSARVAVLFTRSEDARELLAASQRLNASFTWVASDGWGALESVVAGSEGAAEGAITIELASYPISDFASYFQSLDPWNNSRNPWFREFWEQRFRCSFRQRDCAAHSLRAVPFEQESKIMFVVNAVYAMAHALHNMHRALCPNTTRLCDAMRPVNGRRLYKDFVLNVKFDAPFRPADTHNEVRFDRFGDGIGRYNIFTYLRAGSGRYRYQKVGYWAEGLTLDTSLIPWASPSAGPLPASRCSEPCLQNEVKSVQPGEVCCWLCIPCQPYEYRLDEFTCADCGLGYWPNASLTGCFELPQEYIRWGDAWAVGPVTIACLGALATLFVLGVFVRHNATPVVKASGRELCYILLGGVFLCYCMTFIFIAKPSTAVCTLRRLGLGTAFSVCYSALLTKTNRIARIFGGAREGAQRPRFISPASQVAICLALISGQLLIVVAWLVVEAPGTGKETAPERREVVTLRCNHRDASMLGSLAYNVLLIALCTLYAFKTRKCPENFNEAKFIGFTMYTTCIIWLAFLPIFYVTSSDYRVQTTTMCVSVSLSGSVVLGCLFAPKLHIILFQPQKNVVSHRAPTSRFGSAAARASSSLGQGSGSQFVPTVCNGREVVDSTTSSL

[3] = target: Metabotropic glutamate receptor 1 (Rattus norvegicus, UniProt P23385); test: Inhibition of binding to rat mGluR1a (metabotropic glutamate receptor) expressed in HEK-293 cells; assay type: cell-based, HEK293
[4] = target: Metabotropic glutamate receptor 1 (Homo sapiens) (UniProt Q13255); test: Potency at metabotropic glutamate receptor 1, measured as the ratio of EC50 to IC50; No effect at 1 mM
[5] = target: T2, Metabotropic glutamate receptor 2; test: Potency at metabotropic glutamate receptor 2, measured as the ratio of EC50 to IC50; No effect at 1 mM
Target sequence in this assay (Q14416 19-872 limits assumed): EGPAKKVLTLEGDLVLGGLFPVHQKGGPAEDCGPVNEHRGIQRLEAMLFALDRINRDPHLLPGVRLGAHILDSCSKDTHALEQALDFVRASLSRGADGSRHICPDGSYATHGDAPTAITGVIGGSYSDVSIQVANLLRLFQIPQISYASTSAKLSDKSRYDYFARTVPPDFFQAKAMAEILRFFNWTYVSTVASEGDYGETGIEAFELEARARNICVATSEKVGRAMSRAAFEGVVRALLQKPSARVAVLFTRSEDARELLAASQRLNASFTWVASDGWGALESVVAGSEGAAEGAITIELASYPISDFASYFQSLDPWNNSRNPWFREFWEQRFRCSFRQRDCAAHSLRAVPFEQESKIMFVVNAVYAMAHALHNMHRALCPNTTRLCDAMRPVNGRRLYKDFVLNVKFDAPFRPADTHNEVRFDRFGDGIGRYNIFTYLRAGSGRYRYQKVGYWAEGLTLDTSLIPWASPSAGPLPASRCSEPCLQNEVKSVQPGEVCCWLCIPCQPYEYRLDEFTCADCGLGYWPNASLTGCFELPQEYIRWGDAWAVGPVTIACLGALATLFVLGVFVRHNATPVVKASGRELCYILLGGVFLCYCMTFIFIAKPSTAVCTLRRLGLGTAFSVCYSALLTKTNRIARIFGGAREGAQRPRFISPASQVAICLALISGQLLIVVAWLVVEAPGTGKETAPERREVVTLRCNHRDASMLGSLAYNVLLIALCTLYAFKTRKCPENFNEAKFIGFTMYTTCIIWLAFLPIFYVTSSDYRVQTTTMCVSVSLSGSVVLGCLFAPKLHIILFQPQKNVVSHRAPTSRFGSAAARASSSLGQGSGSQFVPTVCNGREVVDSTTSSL

[6] = target: T1, Metabotropic glutamate receptor 4; test: Potency at metabotropic glutamate receptor 4, measured as the ratio of EC50 to IC50; No effect at 1 mM
[7] = target: T2, Metabotropic glutamate receptor 2; test: Potency at Metabotropic glutamate receptor 2, measured as the ratio of EC50 to IC50; No effect at 1 mM
Target sequence in this assay (Q14416 19-872 limits assumed): as above

[8] = target: Metabotropic glutamate receptor 1 (Homo sapiens) (UniProt Q13255); test: Potency at Metabotropic glutamate receptor 1, measured as the ratio of EC50 to IC50; No effect at 1 mM

Chain of Metabotropic glutamate receptor 1 (P23385 whole entry): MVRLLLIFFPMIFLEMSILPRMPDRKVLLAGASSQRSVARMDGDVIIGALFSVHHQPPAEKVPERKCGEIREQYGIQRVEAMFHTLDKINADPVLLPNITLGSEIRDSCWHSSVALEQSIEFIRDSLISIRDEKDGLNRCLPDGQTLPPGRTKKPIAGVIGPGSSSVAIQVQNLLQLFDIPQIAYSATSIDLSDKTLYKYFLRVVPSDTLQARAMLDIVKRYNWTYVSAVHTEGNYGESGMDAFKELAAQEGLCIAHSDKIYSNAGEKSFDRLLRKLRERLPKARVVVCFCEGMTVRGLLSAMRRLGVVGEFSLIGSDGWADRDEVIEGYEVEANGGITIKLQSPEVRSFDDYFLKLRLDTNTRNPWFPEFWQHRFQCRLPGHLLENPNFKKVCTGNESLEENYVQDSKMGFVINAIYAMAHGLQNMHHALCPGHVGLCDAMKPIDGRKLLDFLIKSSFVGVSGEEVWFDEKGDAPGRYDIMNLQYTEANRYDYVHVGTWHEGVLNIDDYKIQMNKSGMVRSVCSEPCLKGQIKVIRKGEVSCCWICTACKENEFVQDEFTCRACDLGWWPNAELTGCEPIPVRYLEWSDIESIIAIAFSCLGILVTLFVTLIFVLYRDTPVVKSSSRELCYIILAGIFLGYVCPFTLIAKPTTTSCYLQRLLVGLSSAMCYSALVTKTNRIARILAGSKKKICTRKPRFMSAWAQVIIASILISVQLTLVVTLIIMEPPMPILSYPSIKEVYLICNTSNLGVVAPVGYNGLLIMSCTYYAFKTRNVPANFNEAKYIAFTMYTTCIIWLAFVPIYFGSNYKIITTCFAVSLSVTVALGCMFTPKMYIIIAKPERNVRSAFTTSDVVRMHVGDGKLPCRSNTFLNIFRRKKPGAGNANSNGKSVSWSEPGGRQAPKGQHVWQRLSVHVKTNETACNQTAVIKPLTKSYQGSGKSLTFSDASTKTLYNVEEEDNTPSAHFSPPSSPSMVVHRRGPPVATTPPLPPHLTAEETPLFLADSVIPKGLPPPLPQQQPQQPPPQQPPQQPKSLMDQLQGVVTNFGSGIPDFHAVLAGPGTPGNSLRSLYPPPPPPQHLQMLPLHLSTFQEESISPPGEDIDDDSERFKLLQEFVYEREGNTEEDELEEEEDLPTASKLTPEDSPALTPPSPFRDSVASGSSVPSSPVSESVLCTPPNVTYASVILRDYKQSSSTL
Chain of Metabotropic glutamate receptor 1 (Homo sapiens) (Q13255 19-1194 limits assumed): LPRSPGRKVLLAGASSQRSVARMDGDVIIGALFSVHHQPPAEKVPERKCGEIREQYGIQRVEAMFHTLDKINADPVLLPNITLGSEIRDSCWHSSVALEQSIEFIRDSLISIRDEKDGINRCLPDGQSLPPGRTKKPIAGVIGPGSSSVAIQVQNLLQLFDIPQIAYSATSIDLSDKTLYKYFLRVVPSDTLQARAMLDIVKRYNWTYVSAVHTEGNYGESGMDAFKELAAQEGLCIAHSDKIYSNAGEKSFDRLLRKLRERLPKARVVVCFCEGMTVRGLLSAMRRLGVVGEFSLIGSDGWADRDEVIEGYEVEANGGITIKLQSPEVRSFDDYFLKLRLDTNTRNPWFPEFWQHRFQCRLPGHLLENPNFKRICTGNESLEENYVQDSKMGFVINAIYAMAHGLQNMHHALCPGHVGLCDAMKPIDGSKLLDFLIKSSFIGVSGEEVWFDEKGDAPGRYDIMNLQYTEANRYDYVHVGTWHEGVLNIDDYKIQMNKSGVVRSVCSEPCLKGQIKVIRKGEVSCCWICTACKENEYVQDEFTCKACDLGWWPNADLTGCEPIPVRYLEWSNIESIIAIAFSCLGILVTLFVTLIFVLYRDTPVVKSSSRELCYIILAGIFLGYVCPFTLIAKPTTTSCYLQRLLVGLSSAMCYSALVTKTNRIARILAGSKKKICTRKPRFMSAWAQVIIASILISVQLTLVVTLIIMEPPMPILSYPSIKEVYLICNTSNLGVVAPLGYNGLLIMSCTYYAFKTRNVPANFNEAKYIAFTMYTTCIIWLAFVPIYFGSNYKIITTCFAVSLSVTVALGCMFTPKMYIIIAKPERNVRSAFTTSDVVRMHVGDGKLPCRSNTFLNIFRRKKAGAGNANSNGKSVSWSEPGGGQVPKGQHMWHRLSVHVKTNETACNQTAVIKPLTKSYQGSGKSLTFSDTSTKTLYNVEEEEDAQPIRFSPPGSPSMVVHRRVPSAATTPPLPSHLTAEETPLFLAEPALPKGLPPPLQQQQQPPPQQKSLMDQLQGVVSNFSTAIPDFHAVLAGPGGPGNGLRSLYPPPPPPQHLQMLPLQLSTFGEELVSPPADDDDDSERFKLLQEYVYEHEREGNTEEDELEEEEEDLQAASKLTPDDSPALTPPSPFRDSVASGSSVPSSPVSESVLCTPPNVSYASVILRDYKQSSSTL
T1 sequence (Q14833 whole entry): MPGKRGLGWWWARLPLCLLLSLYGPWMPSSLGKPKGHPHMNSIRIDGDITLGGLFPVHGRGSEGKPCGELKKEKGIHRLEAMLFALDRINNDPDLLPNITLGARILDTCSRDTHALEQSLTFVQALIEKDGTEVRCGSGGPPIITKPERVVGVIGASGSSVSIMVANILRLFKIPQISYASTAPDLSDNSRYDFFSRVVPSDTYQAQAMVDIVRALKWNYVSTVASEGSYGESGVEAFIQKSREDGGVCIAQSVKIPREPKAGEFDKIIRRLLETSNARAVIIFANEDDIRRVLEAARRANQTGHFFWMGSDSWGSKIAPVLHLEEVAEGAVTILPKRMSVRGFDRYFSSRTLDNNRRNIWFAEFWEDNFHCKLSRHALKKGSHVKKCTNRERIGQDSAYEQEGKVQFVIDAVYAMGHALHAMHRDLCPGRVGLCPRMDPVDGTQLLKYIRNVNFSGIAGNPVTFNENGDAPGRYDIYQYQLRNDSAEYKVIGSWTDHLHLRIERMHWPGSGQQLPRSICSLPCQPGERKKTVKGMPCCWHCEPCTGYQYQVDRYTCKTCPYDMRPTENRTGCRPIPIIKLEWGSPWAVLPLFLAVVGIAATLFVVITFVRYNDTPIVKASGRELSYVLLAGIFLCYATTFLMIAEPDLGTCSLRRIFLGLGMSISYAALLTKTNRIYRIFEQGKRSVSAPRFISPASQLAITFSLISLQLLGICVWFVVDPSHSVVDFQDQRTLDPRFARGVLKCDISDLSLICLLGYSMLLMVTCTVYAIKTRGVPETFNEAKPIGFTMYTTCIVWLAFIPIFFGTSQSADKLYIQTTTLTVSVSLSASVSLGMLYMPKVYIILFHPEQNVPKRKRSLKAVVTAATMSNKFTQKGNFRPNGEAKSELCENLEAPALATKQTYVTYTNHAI

## N[C@@H](CCP(=O)(O)O)C(=O)O
[1]
  Ki: 0.47 µM
[2]
  Ki: 129 µM
[3]
  Ki: > 1000 µM
[4]
  NE: No effect at 1 mM

## N[C@@]1(C(=O)O)CC[C@H]2[C@H](C(=O)O)[C@H]21
[2]
  Ki: 0.013 µM

## N[C@H](C(=O)O)c1cc(O)cc(O)c1
[2]
  Ki: > 1000 µM
[3]
  Ki: 0.9 µM
[5]
  NE: No effect at 1 mM
[6]
  NE: No effect at 1 mM

## N[C@H](C(=O)O)c1ccc(C(=O)O)cc1
[1]
  Ki: 838 µM
[3]
  Ki: 3.7 µM

## N[C@H](C(=O)O)C1[C@@H](C(=O)O)[C@@H]1C(=O)O (some centres undefined)
[2]
  Ki: 0.11 µM
[3]
  Ki: 77 µM

## N[C@@]1(C(=O)O)C[C@H](C(=O)O)[C@H](C(=O)O)C1
[7]
  NE: No effect at 1 mM
[8]
  NE: No effect at 1 mM

## N[C@@H](Cn1oc(=O)[nH]c1=O)C(=O)O [QUISQUALATE]
[1]
  Ki: 112 µM
[2]
  Ki: 113 µM

## N[C@H](C(=O)O)c1ccc(P(=O)(O)O)cc1
[7]
  NE: No effect at 1 mM
[8]
  NE: No effect at 1 mM
